In patent publication US20240190868A1, “SOS1 INHIBITORS” (Acerand Therapeutics (USA) Limited, priority 2022, published 2024):
Structures can show the parent of a compound that is named as a salt.

System: cellular pERK in NCI-H1975 cells (EGFR/L858R-T790M)
Test: pERK potency assay (In Cell ELISA)
Type: cell-based
Conditions: Homo sapiens, 1 h compound incubation
Source text: The assay measures the ability of a compound to inhibit SOS1 function in cells. SOS1 activates RAS proteins by catalyzing the conversion of RAS GDP to RAS GTP in response to receptor tyrosine kinase activation. Activation of RAS induces a sequence of cellular signaling events that result in increased phosphorylation of ERK at Threonine 202 and Tyrosine 204 (pERK). The procedure (i.e., In Cell ELISA as described below) measures the level of cellular pERK in response to a test compound in NCI-H1975 cells (EGFR/L858R-T790M).
First, NCI-H1975 cells were grown and maintained using media and procedures recommended by the ATCC. A day before compound addition, cells were plated in poly-D-lysine coated 96-well cell culture plates (Corning® BioCoat® Cat #356640) at 25000 cells/well/100 μL and grown overnight in an incubator at 37° C. with 5% CO2. A solution of a test compound was prepared with 3-fold serial dilutions in DMSO having a top concentration of 6 mM. On the day of the assay, 50 μL of a test compound dilution in media was added to each well of cell culture plate with a final compound concentration in the range of 0.001 μM to 20 μM. After addition of the compound, cells were incubated for 1 h at 37° C. with 5% CO2, after which the culture medium was removed. Cells were fixed with 4% formaldehyde in phosphate-buffered saline (PBS) and incubated at RT for 20 min. The plate was washed three times with PBST (PBS with 0.05% Tween®-20), followed by incubation with 100 μL of pre-cooled methanol at −20° C. for 20 min. After incubation, methanol was removed. The plate was again washed with PBST. Cells were then permeabilized with 100 μL/well of 0.1% Triton X-100 in PBS at RT for 20 min and then quenched with a quenching buffer (PBST containing 1% H2O2 and 0.1% sodium azide) for 20 min at RT with gentle shaking. After washing once with PBST, a blocking buffer (250 uL/well, Pierce™ Protein-Free-PBS Blocking Buffer, Cat #37572) was then added to the cells for 1-h incubation at RT, followed by an anti-pERK antibody (cell signaling, 1:1000 dilution in 5% BSA in PBST) incubation overnight at 4° C. and a secondary antibody-HRP (Jackson immunoresearch, 1:3000 dilution in 5% BSA in PBST) incubation at RT for 1 h. PBST wash was carried out after each step three times. Before the addition of a substrate (Advansta ELISABright™), the plate was washed with PBS twice to remove detergent residues. The Cellular pERK level was determined using the microplate reader (Biotek Synergy™ H1) to detect the chemiluminescence signal. IC50 was determined by fitting a 4-parameter sigmoidal concentration-response model.

Structure (SMILES)	IC50 [nM]
CC(=O)N1CCC(F)(c2cc3/c(=N/[C@H](C)c4cccc(C(F)(F)F)c4C)nc(C)n(C)c3cn2)CC1 [Compound 1, (R,Z)-1-(4-(1,2-dimethyl-4-((1-(2-methyl-3-(trifluoromethyl)phenyl)ethyl)imino)-1,4-dihydropyrido[3,4-d]pyrimidin-6-yl)-4-fluoropiperidin-1-yl)ethan-1-one]	< 100
CC(=O)N1CC=C(c2cc3/c(=N/[C@H](C)c4cccc(C(F)(F)F)c4C)nc(C)n(C)c3cn2)CC1 [Compound 2, (R,Z)-1-(4-(1,2-dimethyl-4-((1-(2-methyl-3-(trifluoromethyl)phenyl)ethyl)imino)-1,4-dihydropyrido[3,4-d]pyrimidin-6-yl)-3,6-dihydropyridin-1(2H)-yl)ethan-1-one]	< 100
CC(=O)N1CC=C(c2cc3/c(=N/[C@H](C)c4cccc(C(F)(F)F)c4C)nc(C4CC4)n(C)c3cn2)CC1 [Compound 3]	< 100
CC(=O)N1CC=C(c2cc3/c(=N/[C@H](C)c4cccc(C(F)F)c4F)nc(C)n(C)c3cn2)CC1 [Compound 4, (R,Z)-1-(4-(4-((1-(3-(difluoromethyl)-2-fluorophenyl)ethyl)imino)-1,2-dimethyl-1,4-dihydropyrido[3,4-d]pyrimidin-6-yl)-3,6-dihydropyridin-1(2H)-yl)ethan-1-one]	< 100
CC(=O)N1CCC(O)(c2cc3/c(=N/[C@H](C)c4cccc(C(F)F)c4F)nc(C)n(C)c3cn2)CC1 [Compound 5, (R,Z)-1-(4-(4-((1-(3-(difluoromethyl)-2-fluorophenyl)ethyl)imino)-1,2-dimethyl-1,4-dihydropyrido[3,4-d]pyrimidin-6-yl)-4-hydroxypiperidin-1-yl)ethan-1-one]	< 100
CC(=O)N1CCC(F)(c2cc3/c(=N/[C@H](C)c4cccc(C(F)F)c4F)nc(C)n(C)c3cn2)CC1 [Compound 6, (R,Z)-1-(4-(4-((1-(3-(difluoromethyl)-2-fluorophenyl)ethyl)imino)-1,2-dimethyl-1,4-dihydropyrido[3,4-d]pyrimidin-6-yl)-4-fluoropiperidin-1-yl)ethan-1-one]	< 100
CC(=O)N1CC=C(c2cc3/c(=N/[C@H](C)c4cccc(C#N)c4C)nc(C)n(C)c3cn2)CC1 [Compound 7]	< 100
CC(=O)N1CCC(F)(c2cc3/c(=N/[C@H](C)c4cccc(C#N)c4C)nc(C)n(C)c3cn2)CC1 [Compound 8]	< 100
CC(=O)N1CC=C(c2cc3/c(=N/[C@H](C)c4cccc(C(F)(F)F)c4C)nc(C)n(C(C)C)c3cn2)CC1 [Compound 9]	< 100
CC(=O)N1CC=C(c2cc3/c(=N/[C@H](C)c4cccc(C(F)(F)F)c4C)nc(C)n(C4CC4)c3cn2)CC1 [Compound 10]	< 100
C#C[C@@H](/N=c1\nc(C)n(C)c2cnc(C3=CCN(C(C)=O)CC3)cc12)c1cccc(C(F)(F)F)c1C [Compound 11]	< 100
CC(=O)N1CC=C(c2cnc3c(c2)/c(=N/[C@H](C)c2cccc(C(F)(F)F)c2C)nc(C)n3C)CC1 [Compound 12]	< 100
CC(=O)N1CCC(F)(c2cnc3c(c2)/c(=N/[C@H](C)c2cccc(C(F)(F)F)c2C)nc(C)n3C)CC1 [Compound 13]	< 100
CC(=O)N1CC=C(c2cc3/c(=N/[C@H](C)c4cccc(C(F)(F)F)c4C)ncn(C4CC4)c3cn2)CC1 [Compound 14]	< 100
CC(=O)N1CCC(F)(c2cc3/c(=N/[C@H](C)c4cccc(C(F)(F)F)c4C)ncn(C)c3cn2)CC1 [Compound 15, (R,Z)-1-(4-fluoro-4-(1-methyl-4-((1-(2-methyl-3-(trifluoromethyl)phenyl)-ethyl)imino)-1,4-dihydropyrido[3,4-d]pyrimidin-6-yl)piperidin-1-yl)ethan-1-one hydrochloride]	< 100
CC(=O)N1CC=C(c2cc3/c(=N/[C@H](C)c4cccc(C(F)(F)F)c4C)ncn(C)c3cn2)CC1 [Compound 16]	< 100
CC(=O)N1CCC(F)(c2ccc3c(c2)/c(=N/[C@H](C)c2cccc(C(F)(F)F)c2C)ncn3C)CC1 [Compound 17]	< 100
Cc1c([C@@H](C)/N=c2\nc(C)n(C)c3cnc(C4(C(F)F)CC4)cc23)cccc1C(F)(F)F [Compound 18, (R,Z)-6-(1-(difluoromethyl)cyclopropyl)-1,2-dimethyl-N-(1-(2-methyl-3-(trifluoromethyl)phenyl)ethyl)pyrido[3,4-d]pyrimidin-4(1H)-imine]	< 100
Cc1c(C#N)cccc1[C@@H](C)/N=c1\nc(C)n(C)c2cnc(C3(C(F)F)CC3)cc12 [Compound 19]	< 100
C[C@@H](/N=c1\ncn(C)c2cnc(C3(C(F)F)CC3)cc12)c1cccc(C(F)F)c1F [Compound 20, (R,Z)—N-(1-(3-(difluoromethyl)-2-fluorophenyl)ethyl)-6-(1-(difluoromethyl)-cyclopropyl)-1-methylpyrido[3,4-d]pyrimidin-4(1H)-imine]	< 100
C#C[C@@H](/N=c1\ncn(C)c2cc(=O)n(C3(C(F)F)CC3)cc12)c1cccc(C(F)(F)F)c1C [Compound 21, (R,Z)-6-(1-(difluoromethyl)cyclopropyl)-1-methyl-4-((1-(2-methyl-3-(trifluoromethyl)phenyl)prop-2-yn-1-yl)imino)-4,6-dihydropyrido[4,3-d]pyrimidin-7(1H)-one]	< 100
COc1nc(C2(O)CCN(C(C)=O)CC2)cc2/c(=N/[C@H](C)c3cccc(C(F)(F)F)c3C)ncn(C)c12 [Compound 22, (R,Z)-1-(4-hydroxy-4-(8-methoxy-1-methyl-4-((1-(2-methyl-3-(trifluoromethyl)phenyl)ethyl)imino)-1,4-dihydropyrido[3,4-d]pyrimidin-6-yl)piperidin-1-yl)ethan-1-one]	< 100
COc1nc(C2(F)CCN(C(C)=O)CC2)cc2/c(=N/[C@H](C)c3cccc(C(F)(F)F)c3C)ncn(C)c12 [Compound 23, (R,Z)-1-(4-fluoro-4-(8-methoxy-1-methyl-4-((1-(2-methyl-3-(trifluoromethyl)phenyl)ethyl)imino)-1,4-dihydropyrido[3,4-d]pyrimidin-6-yl)piperidin-1-yl)ethan-1-one]	< 100
COc1nc(C2(O)CC(C)(C)N(C(C)=O)C(C)(C)C2)cc2/c(=N/[C@H](C)c3cccc(C(F)(F)F)c3C)ncn(C)c12 [Compound 24, (R,Z)-1-(4-hydroxy-4-(8-methoxy-1-methyl-4-((1-(2-methyl-3-(trifluoromethyl)phenyl)ethyl)imino)-1,4-dihydropyrido[3,4-d]pyrimidin-6-yl)-2,2,6,6-tetramethylpiperidin-1-yl)ethan-1-one]	< 100
CC(=O)N1CC=C(c2cc3/c(=N/[C@H](C)c4cccc(C(F)(F)F)c4C)nc4n(c3cn2)CCC4)CC1 [Compound 25, (R,Z)-1-(4-(5-((1-(2-methyl-3-(trifluoromethyl)phenyl)ethyl)imino)-5,7,8,9-tetrahydropyrido[4,3-e]pyrrolo[1,2-a]pyrimidin-3-yl)-3,6-dihydropyridin-1(2H)-yl)ethan-1-one]	< 100
CC(=O)N1CCC(O)(c2cc3/c(=N/[C@H](C)c4cccc(C(F)(F)F)c4C)nc4n(c3cn2)CCC4)CC1 [Compound 26, (R,Z)-1-(4-hydroxy-4-(5-((1-(2-methyl-3-(trifluoromethyl)phenyl)ethyl)-imino)-5,7,8,9-tetrahydropyrido[4,3-e]pyrrolo[1,2-a]pyrimidin-3-yl)piperidin-1-yl)ethan-1-one]	< 100
CC(=O)N1CCC(F)(c2cc3/c(=N/[C@H](C)c4cccc(C(F)(F)F)c4C)nc4n(c3cn2)CCC4)CC1 [Compound 27, (R,Z)-1-(4-fluoro-4-(5-((1-(2-methyl-3-(trifluoromethyl)phenyl)ethyl)-imino)-5,7,8,9-tetrahydropyrido[4,3-e]pyrrolo[1,2-a]pyrimidin-3-yl)piperidin-1-yl)ethan-1-one]	< 100
CC(=O)N1CCC(O)(c2cc3/c(=N/[C@H](C)c4cccc(C(F)F)c4F)nc4n(c3cn2)CCC4)CC1 [Compound 28]	< 100
CC(=O)N1CCC(F)(c2cc3/c(=N/[C@H](C)c4cccc(C(F)F)c4F)nc4n(c3cn2)CCC4)CC1 [Compound 29]	< 100
CC(=O)N1CCC(F)(c2cc3/c(=N/[C@H](C)c4cccc(C#N)c4C)nc4n(c3cn2)CCC4)CC1 [Compound 30]	< 100
